# Results reported in patent publication US10378059B2, “Methods and molecular pharmacodynamic biomarkers for multiple signaling pathways in response to carboxyamidotriazole orotate” (TACTICAL THERAPEUTICS, INC., priority 2013, dated 2019).
# “Also recorded” adds a separate entry of the source.
# Experiments:
# [1] = tested on: early growth response 1 gene product (EGR1); experiment: Plucked hair assay, EGR1 expression; type: cell-based, human; conditions: for EGR1 regulation: BEZ235 and Tarceva 1 μM, 24 hr
# Procedure: Donor hairs were plucked from 5 male donor volunteers, immediately transferred to maintenance medium cultures and exposed to varying doses of CTO equivalent to 2 M, 5 μM, and 10 μM carboxyamidotriazole (CAI). The cultures were either maintained for 8 hrs or 24 hrs. Controls were used, for example, Tarceva®. (EGFR inhibitor) at 1 μM and BEZ235 (PI3K inhibitor) at 1 μM for 24 hrs only. Once in culture hairs were collected at the specified periods for mRNA isolation or protein analysis to ensure quality control. Small amounts of RNA (about up to 500 ng) are extracted from the bulbs at the end of the anagen hairs. Representative cDNA was prepared from the RNA and gene expression levels determined by microarray analysis. Biotin labeling, fragmentation and hybridization to 048 Affymetrix U133 plus 2.0 array was done. Bioinformatic analysis was done to identify CTO induced gene expression changes.
# [2] = tested on: ex vivo cultured human anagen hairs; experiment: Plucked hair biomarker platform: global transcriptional response by microarray (probe list, Table 1); conditions: for transcriptional response (differential probes): CTO equivalent to 2, 5, 10 μM CAI, 8 hr and 24 hr, BEZ235 and Tarceva 1 μM, 24 hr
# [3] = tested on: carcinoembryonic antigen-related cell adhesion molecule (CEACAM1); experiment: Plucked hair assay, CEACAM1 expression; type: cell-based, human
# Procedure: (§1) Donor hairs were plucked from 5 male donor volunteers, immediately transferred to maintenance medium cultures and exposed to varying doses of CTO equivalent to […], 5 μM, and 10 μM carboxyamidotriazole (CAI). The cultures were either maintained for 8 hrs or 24 hrs. Controls were used, for example, Tarceva®. (EGFR inhibitor) at 1 μM and BEZ235 (PI3K inhibitor) at 1 μM for 24 hrs only. Once in culture hairs were collected at the specified periods for mRNA isolation or protein analysis to ensure quality control. Small amounts of RNA (about up to 500 ng) are extracted from the bulbs at the end of the anagen hairs. Representative cDNA was prepared from the RNA and gene expression levels determined by microarray analysis. Biotin labeling, fragmentation and hybridization to 048 Affymetrix U133 plus 2.0 array was done. Bioinformatic analysis was done to identify CTO induced gene expression changes.
# PI3K pathway = experiment: Plucked hair assay, PI3K Signature Score; type: cell-based, human; conditions: CTO 8 hr and 24 hr; BEZ235 1 μM 24 hr
# Procedure: as §1, with “Bioinformatic analysis was done to identify CTO induced gene expression changes.” left out
# PI3K/mTOR pathway = experiment: Plucked hair assay, PI3K/mTOR Signature Score; type: cell-based, human; conditions: CTO 8 hr and 24 hr; BEZ235 1 μM 24 hr
# Procedure: as §1, with “Bioinformatic analysis was done to identify CTO induced gene expression changes.” left out
# P53 pathway = experiment: Plucked hair assay, P53 Signature Score; type: cell-based, human; conditions: all doses of CTO, 8 hr and 24 hr
# Procedure: as §1, with “Bioinformatic analysis was done to identify CTO induced gene expression changes.” left out
# MEK pathway = experiment: Plucked hair assay, MEK Signature Score; type: cell-based, human; conditions: all CTO treatments at 8 hrs and 24 hrs
# Procedure: as §1, with “Bioinformatic analysis was done to identify CTO induced gene expression changes.” left out
# HSP90 pathway = experiment: Plucked hair assay, HSP90 Signature Score; type: cell-based, human; conditions: different doses of CTO, 8 hr and 24 hr; dose dependent
# Procedure: as §1, with “Bioinformatic analysis was done to identify CTO induced gene expression changes.” left out
# TGF-β signaling = experiment: Plucked hair assay, TGF-β signaling; type: cell-based, human
# Procedure: as §1
# NOTCH pathway = experiment: Plucked hair assay, NOTCH Signature Score; type: cell-based, human; conditions: different doses of CTO, 8 hr and 24 hr
# Procedure: as §1, with “Bioinformatic analysis was done to identify CTO induced gene expression changes.” left out
# WNT β-catenin pathway = experiment: Plucked hair assay, WNT β-catenin Signature Score; type: cell-based, human; conditions: 24 hrs exposure to CTO
# Procedure: as §1, with “Bioinformatic analysis was done to identify CTO induced gene expression changes.” left out
# [4] = tested on: cancer patients with different tumor types; type: in vivo; conditions: CTO given alone
# Text: Thus enormous efforts are directed to the development of molecular pharmacodynamics biomarkers of signaling outputs of CTO to design combinatorial regimens against molecular targets in different types of cancers. Current methods for assessing pathway activation in tumors involve the measurement of the drug targets, known oncogenes or known tumor suppressors. However, one pathway can be activated at multiple points so it is not feasible to assess pathway activation by evaluating just known cancer associated genes.
# CAI Ex vivo pathway = experiment: Plucked hair assay, CAI Ex vivo Signature Score; type: cell-based, human; conditions: different doses of CTO, 8 hr and 24 hr; tissue specific direction of change
# Procedure: as §1, with “changes. […]” for “changes.”
# HDAC pathway = experiment: Plucked hair assay, HDAC Signature Score; type: cell-based, human; conditions: different doses of CTO, 8 hr and 24 hr
# Procedure: as §1, with “Bioinformatic analysis was done to identify CTO induced gene expression changes.” left out
# EGFR pathway = experiment: Plucked hair assay, EGFR Signature Score; type: cell-based, human; conditions: all doses of CTO and time points; Tarceva 1 μM 24 hr
# Procedure: as §1, with “Bioinformatic analysis was done to identify CTO induced gene expression changes.” left out
# [5] = tested on: non-voltage dependent calcium signaling genes; experiment: Plucked hair assay, non-voltage dependent calcium signaling Signature Score; type: cell-based, human; conditions: across CTO treatment; literature determined regulation and ANOVA determined set
# Procedure: as §1, with “changes. […]” for “changes.”
# Dystonin = experiment: Plucked hair assay, Dystonin expression; type: cell-based, human
# Procedure: as §1
# CAI IPA pathway = experiment: Plucked hair assay, CAI IPA Signature Score; type: cell-based, human; conditions: different doses of CTO, 8 hr and 24 hr; except at 10 μM
# Procedure: as §1, with “changes. […]” for “changes.”
# [6] = tested on: Growth Factor Signature (GFS) pathway; experiment: Plucked hair assay, Growth Factor Signature Score; type: cell-based, human; conditions: different doses of CTO, 8 hr and 24 hr; most obvious at 8 hrs
# Procedure: as §1, with “Bioinformatic analysis was done to identify CTO induced gene expression changes.” left out
# RAS pathway = experiment: Plucked hair assay, RAS pathway Signature Score; type: cell-based, human; conditions: different doses of CTO, 8 hr and 24 hr; most obvious at 8 hrs
# Procedure: as §1, with “Bioinformatic analysis was done to identify CTO induced gene expression changes.” left out
# [7] = tested on: Canonical Calcium signaling; experiment: Plucked hair assay, Canonical Calcium signaling Signature Score (KEGG and IPA); type: cell-based, human; conditions: KEGG Calcium Signaling Pathway and IPA predicted regulation
# Procedure: Canonical calcium signaling was analyzed using the KEGG Calcium Signaling Pathway and IPA to predict regulation of canonical calcium signaling. […] Using ANOVA to filter for informative genes (FDR<0.05 & 1.5) it was noted that suppression of canonical calcium genes occurred across CTO treatment, however this only represented 7/68 canonical pathway genes.
# as §1, with “changes. […]” for “changes.”
structure (smiles),measurement,setting,value
"C#Cc1cccc(Nc2ncnc3cc(OCCOC)c(OCCOC)cc23)c1 [Tarceva®, erlotinib, reference compound]",EGR1 regulation,[1],suppressed
same,transcriptional response (differential probes),[2],less differential probes than CTO or BEZ235
same,CEACAM1 regulation,[3],down regulated
"Cn1c(=O)n(-c2ccc(C(C)(C)C#N)cc2)c2c3cc(-c4cnc5ccccc5c4)ccc3ncc21 [BEZ235, reference compound]",PI3K signature,PI3K pathway,Strong suppression
same,EGR1 regulation,[1],suppressed
same,PI3K/mTOR signature,PI3K/mTOR pathway,Strong suppression
"NC(=O)c1nnn(Cc2cc(Cl)c(C(=O)c3ccc(Cl)cc3)c(Cl)c2)c1N.O=C(O)c1cc(=O)[nH]c(=O)[nH]1 [CTO, carboxyamidotriazole orotate]",P53 signature,P53 pathway,stabilized; also recorded: induction; also recorded: induced
same,MEKi signature,MEK pathway,strongly suppressed; also recorded: strong inhibition
same,HSP90 signature,HSP90 pathway,strong suppression
same,TGF-β signaling,TGF-β signaling,inhibited
same,Notch signature,NOTCH pathway,no suppression; also recorded: no activity
same,EGR1 up regulation,[1]; varying doses of CTO at 8 hr and 24 hrs,6 fold
same,WNT β-catenin signature,WNT β-catenin pathway,modes suppression; also recorded: inhibitory at 24 hr
same,tumor response,[4]; cancer patients with different genomic mutations,stable disease or partial response showing tumor shrinkage
same,safety and tolerability,"[4]; cancer patients, maximum tolerated dose not determined",safe and tolerable
same,"IPA CAI list, ex vivo 14 gene set",CAI Ex vivo pathway,strong dose dependent suppression
same,HDAC signature,HDAC pathway,strongly suppressed; also recorded: weak suppression
same,EGFR signature,EGFR pathway,strongly suppressed; also recorded: very strong suppression; also recorded: stronger than that in Tarceva® at all doses of CTO and time points
same,non-voltage dependent calcium genes signature,[5],strongly suppressed; also recorded: strong suppression
same,Dystonin down regulation,Dystonin,60 fold
same,net result probes overlapping between the 8 hr and 24 hr lists,[2]; 442 unique annotated genes,558
same,probes observed,[2]; 8 hours,1440
same,probes observed,[2]; 24 hrs,2961
same,transcriptional response (differential probes),[2],differential probes increased in a dose related manner; also recorded: greatest effect transcriptionally
same,fold range of the overlapping probes,[2]; high dose CTO/24 hr,−75 to +33 fold
same,"CAI signature (IPA, 29 genes)",CAI IPA pathway,some suppression
same,Growth Factor signature (GFS),[6],modest down regulation
same,RAS signature,RAS pathway,modest down regulation
same,CEACAM1 regulation,[3],down regulated
same,canonical calcium signaling pathway signature,[7],No significant suppression
